Tests used:
[1] = target: T1, GST-human KRas166 (G12V) GPPNHP (Homo sapiens, UniProt P01116, G12V); assay: KRas small-molecule screening by SPR (Biacore T200); assay type: binding; conditions: compound 100 uM, 5% DMSO buffer; immobilised GST-KRas166 (G12V) GPPNHP
T1 construct: made in house; host or cells: E. coli C41(DE3)
Outline: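 Biacore T200 screen: compounds at 100 uM final in 5% DMSO buffer (100 mM NaCl, 5 mM MgCl2) over GPPNHP-bound GST-KRas166 G12V captured by anti-GST antibody (10,000–15,000 RU) versus GST-only channel. Expected 1:1 Rmax 63 RU; DMSO solvent correction applied.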

[2] = test system: H358 cells (ATCC CRL-5807); assay: Cell viability assay 1 (CellTiter-Glo), H358 cells; assay type: cell-based; conditions: Homo sapiens, NCI-H358, 48 h, first value of the cell, read-out: Cell Viability H358 (concentration that decreases cell viability by 50%)
Outline: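 H358 cells were grown in RPMI-1640 with 10% FCS and 2 mM L-glutamine, plated at 5000 cells/well and allowed to adhere overnight. Compound was added in 0.5% DMSO final for 48 h at 37° C. Viability was read by CellTiter-Glo luminescence, with the 50% viability-reducing concentration derived from dose-response curves.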

[3] = test system: DLD1 cells (ATCC CCL-221); assay: Cell viability assay 1 (CellTiter-Glo), DLD1 cells; assay type: cell-based; conditions: Homo sapiens, DLD-1 cells, 48 h, second value of the cell, read-out: Cell Viability DLD-1 (concentration that decreases cell viability by 50%)
Outline: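 DLD1 cells grown in RPMI-1640 with 10% FCS, 2 mM L-glutamine, 37 °C, 5% CO2, plated overnight then exposed to compound (0.5% DMSO) for 48 h. Viability by CellTiter-Glo luminescence; value is concentration reducing viability by 50% from dose-response curves.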

Compound	SPR Response Units [1] [Response Units]	IC50 [2] [µM]	IC50 [3] [µM]
COc1nc(-c2cccc3c2OC(CNC(=O)C2CCOCC2)CO3)ccc1Nc1ccc(CNCC2COCCN2)cc1 (stereo not drawn) [Example 127, Tetrahydro-pyran-4-carboxylic acid{8-[6-methoxy-5-(4-{[(morpholin-3-ylmethyl)-amino]-methyl}-phenylamino)-pyridin-2-yl]-2,3-dihydro-benzo[1,4]dioxin-2-ylmethyl}-amide]	205	16.9	18.9
COc1nc(-c2cccc3c2OCCO3)ccc1Nc1cccc(CNCc2cc[nH]c(=O)c2)c1 [Example 193, 4-({3-[6-(2,3-Dihydro-benzo[1,4]dioxin-5-yl)-2-methoxy-pyridin-3-ylamino]-benzylamino}-methyl)-1H-pyridin-2-one]	388	52.5	14.8
COc1nc(-c2cccc3c2OC(CNC(=O)C2CCOCC2)CO3)ccc1Nc1cccc(CN(C)C)c1 (stereo not drawn) [Example 84, Tetrahydro-pyran-4-carboxylic acid {8-[5(3-dimethylamino-methyl-phenylamino)-6-methoxy-pyridin-2-yl]-2,3-dihydro-benzo[1,4]dioxin-2-ylmethyl}-amide]	59	33	20
COc1cccc(-c2cccc3c2OC(CNC(=O)c2coc(CN4CCOCC4)c2)CO3)n1 (stereo not drawn) [Example 46, 5-Morpholin-4-ylmethyl-furan-3-carboxylic acid [8-(6-methoxy-pyridin-2-yl)-2,3-dihydro-benzo[1,4]dioxin-2-ylmethyl]-amide]	148	> 100	> 100
COc1nc(-c2cccc3c2OC(CNC(=O)C2CCOCC2)CO3)ccc1Nc1ccc(CNCc2ccccn2)cc1 (stereo not drawn) [Example 118, Tetrahydro-pyran-4-carboxylic acid {8-[6-methoxy-5-(4-{[(pyridin-2-ylmethyl)-amino]-methyl}-phenylamino)-pyridin-2-yl]-2,3-dihydro-benzo[1,4]dioxin-2-ylmethyl}-amide]	291	12.8	11
COc1nc(-c2cccc3c2OCCO3)ccc1Nc1cccc(CNC(=O)c2ccncc2)c1 [Example 80, N-{3-[6-(2,3-Dihydro-benzo[1,4]dioxin-5-yl)-2-methoxy-pyridin-3-ylamino]-benzyl}-isonicotinamide]	51	16.5	13.4
COc1nc(-c2cccc3c2O[C@@H](CNC(=O)C2CCOCC2)CO3)ccc1Nc1cccc(CN(C)C)c1 [Example 69]	128	21	21.5
COc1nc(-c2cccc3c2OCCO3)ccc1Nc1cccc(CNC(=O)c2cccnc2)c1 [Example 79, N-{3-[6-(2,3-Dihydro-benzo[1,4]dioxin-5-yl)-2-methoxy-pyridin-3-ylamino]-benzyl}-nicotinamide]	47	18	16.5
COc1nc(-c2cccc3c2OCCO3)ccc1Nc1cccc(CN2CCN(Cc3cn[nH]c3)CC2)c1 [Example 208, [6-(2,3-Dihydro-benzo[1,4]dioxin-5-yl)-2-methoxy-pyridin-3-yl]-{3-[4-(1H-pyrazol-4-ylmethyl)-piperazin-1-ylmethyl]-phenyl}-amine]	1266	17.4	5.8
COc1nc(-c2cccc3c2OCCO3)ccc1Nc1cccc(C(=O)NCc2cccc(C)n2)c1 [Example 162, 3-[6-(2,3-Dihydro-benzo[1,4]dioxin-5-yl)-2-methoxy-pyridin-3-ylamino]-N-(6-methyl-pyridin-2-ylmethyl)-benzamide]	36	27.9	3.9
COc1nc(-c2cccc3c2OCCO3)ccc1Nc1cccc(CNCC2CCN(C(C)=O)CC2)c1 [Example 191, 1-[4-({3-[6-(2,3-Dihydro-benzo[1,4]dioxin-5-yl)-2-methoxy-pyridin-3-ylamino]-benzylamino}-methyl)-piperidin-1-yl]-ethanone]	327	91.8	7.9
CN1CCN(Cc2ccc(C(=O)NCC3COc4cccc(-c5cn(Cc6ccccc6)cn5)c4O3)o2)CC1 (stereo not drawn) [Example 138, 5-(4-Methyl-piperazin-1-ylmethyl)-furan-2-carboxylic acid[8-(1-benzyl-1H-imidazol-4-yl)-2,3-dihydro-benzo[1,4]dioxin-2-ylmethy]-amide]	238	> 100	18
COc1nc(-c2cccc3c2OCCO3)ccc1Nc1cccc(CNCC2CCNC(=O)C2)c1 (stereo not drawn) [Example 194, 4-({3-[6-(2,3-Dihydro-benzo[1,4]dioxin-5-yl)-2-methoxy-pyridin-3-ylamino]-benzylamino}-methyl)-piperidin-2-one]	359	> 150	11.2
COc1nc(-c2cccc3c2OCCO3)ccc1Nc1ccc(CN(C)C)cn1 [Example 57, [6-(2,3-Dihydro-benzo[1,4]dioxin-5-yl)-2-methoxy-pyridin-3-yl]-(5-dimethylaminomethyl-pyridin-2-yl)-amine]	77	29	20.2

Results, then the compound that gave them:

SPR Response Units [1] [Response Units]	IC50 [2] [µM]	IC50 [3] [µM]	Compound
142	12.2	51.6	COc1nc(-c2cccc3c2OCCO3)ccc1Nc1cccc(CC(=O)NC2CCNC(=O)C2)c1 (stereo not drawn) [Example 205, 2-{3-[6-(2,3-Dihydro-benzo[1,4]dioxin-5-yl)-2-methoxy-pyridin-3-ylamino]-phenyl}-N-(2-oxo-piperidin-4-yl)-acetamide]
636	2.4	0.3	COc1nc(-c2cccc3c2OCCO3)ccc1Nc1ccc(CNCC2CCN(C)CC2)cc1 [Example 186, [6-(2,3-Dihydro-benzo[1,4]dioxin-5-yl)-2-methoxy-pyridin-3-yl]-(4-{[(1-methyl-piperidin-4-ylmethyl)-amino]-methyl}-phenyl)-amine]
192	8.9	0.74	COc1nc(-c2cccc3c2OCCO3)ccc1Nc1cccc(C(=O)NCC2CCN(C)CC2)c1 [Example 163, 3-[6-(2,3-Dihydro-benzo[1,4]dioxin-5-yl)-2-methoxy-pyridin-3-ylamino]-N-(1-methyl-piperidin-4-ylmethyl)-benzamide]
122	2.4	1.2	COc1nc(-c2cccc3c2OCCO3)ccc1Nc1ccc(C(=O)NCC2CCN(Cc3ccccc3)CC2)cc1 [Example 185, N-(1-Benzyl-piperidin-4-ylmethyl)-4-[6-(2,3-dihydro-benzo[1,4]dioxin-5-yl)-2-methoxy-pyridin-3-ylamino]-benzamide]
147	7.4	4	COc1nc(-c2cccc3c2OCCO3)ccc1Nc1ccc(CNCC2CNC(=O)C2)cc1 (stereo not drawn) [Example 173, 4-({4-[6-(2,3-Dihydro-benzo[1,4]dioxin-5-yl)-2-methoxy-pyridin-3-ylamino]-benzylamino}-methyl)-pyrrolidin-2-one]
209	6.8	10.5	COc1nc(-c2cccc3c2OCCO3)ccc1Nc1ccc(CNCC2CCNC(=O)C2)cc1 (stereo not drawn) [Example 201, 4-({4-[6-(2,3-Dihydro-benzo[1,4]dioxin-5-yl)-2-methoxy-pyridin-3-ylamino]-benzylamino}-methyl)-piperidin-2-one]
92	6.5	10.2	COc1nc(-c2cccc3c2OCCO3)ccc1Nc1ccc(CNC[C@H]2COCCN2)cc1 [Example 129, [6-(2,3-Dihydro-benzo[1,4]dioxin-5-yl)-2-methoxy-pyridin-3-yl]-(4-{[((S)-1-morpholin-3-ylmethyl)-amino]-methyl}-phenyl)-amine]
349	10	11.2	COc1nc(-c2cccc3c2OC(CNC(=O)C2CCOCC2)CO3)ccc1Nc1ccc(CNCc2ccncc2)cc1 (stereo not drawn) [Example 119, Tetrahydro-pyran-4-carboxylic acid {8-[6-methoxy-5-(4-{[(pyridin-4-ylmethyl)-amino]-methyl}-phenylamino)-pyridin-2-yl]-2,3-dihydro-benzo[1,4]dioxin-2-ylmethyl}-amide]
71	12.7	0.56	c1cc2c(c(-c3cnc(Nc4ccc(CNCC5COCCN5)cc4)cn3)c1)OCCO2 (stereo not drawn) [Example 155, [5-(2,3-Dihydro-benzo[1,4]dioxin-5-yl)-pyrazin-2-yl]-(4-{[(morpholin-3-ylmethyl)-amino]-methyl}-phenyl)-amine]

— patent publication US12024506B2, “Compounds” (Oxford University Innovation Limited, priority 2018, dated 2024)
